# Assay results published in PMC6271893, “In Vitro Antioxidant and Cytotoxic Activity of Some Synthetic Riparin-Derived Compounds” (Molecules, 2014).
# Where two headings read alike, the source gives them in different places. Marks after values point to notes of the source that are not given here.
# What was measured:
# [1] = Hydroxyl radical scavenging activity (2-deoxyribose degradation, Fenton reaction); conditions: for IC50 OH radical: hydroxyl radical content
# Procedure: (§1) For the in vitro antioxidant tests the samples were emulsified in 0.05% Tween 80 dissolved in saline 0.9% (used as the vehicle) and tested at concentrations of 1, 5, 10, 25 and 100 µg/mL. The samples for the cytotoxicity tests were diluted in pure and sterile DMSO and tested at concentrations of 25 µg/mL.
# The formation of OH radicals from Fenton reagents was quantified using the condensation product of the 2-deoxyribose oxidative degradation product, malonaldehyde, with 2-thiobarbituric acid (TBA). Briefly, typical reactions were started by the addition of Fe^2+ (FeSO4 6 mM final concentration) to solutions containing 5 mM 2-deoxyribose, 100 mM H2O2 and 20 mM phosphate buffer (pH 7.2). In order to determine the antioxidant activity of the riparins against the hydroxyl radical, individual tests were performed on each one of the six substances, in which different concentrations of the riparins were added to the system before Fe^2+ addition (Rip-A; Rip-B; Rip-C; Rip-D; Rip-E and Rip-F). Reactions were carried out for 15 min at room temperature and were quenched by the addition of phosphoric acid 4% (v/v), followed by TBA 1% (thiobarbituric acid, v/v in 50 μL NaOH). The solutions were boiled for 15 min to 95 °C and then cooled at room temperature. The absorbance was measured at 532 nm and the results were expressed as MDA equivalents formed by Fe^2+ and H2O2 [25].
# [2] = Antioxidant potential against the formation of TBARS (AAPH-induced lipid peroxidation of egg yolk homogenate); conditions: for IC50 TBARS: TBARS production
# Procedure: as §1
# The TBARS assay was employed to quantify lipid peroxidation and an adapted TBARS method was used to measure the antioxidant capacity of the riparins (Rip-A, -B, -C, -D, -E and -F) using egg yolk homogenate as lipid rich substrate. Egg yolk was homogenized (1% w/v) in 20 mM phosphate buffer (pH 7.4), 1 mL of homogenate was sonicated and then homogenized with 0.1 mL of the samples at concentrations of 1, 5, 10, 25 and 100 µg/mL. Lipid peroxidation was induced by the addition of 0.1 mL of 2,2'-azobis(2-methylpropionamidine) dihydrochloride solution (AAPH; 0.12 M). Control was evaluated with only the vehicle. Reactions were carried out for 15 minutes at 37 °C. After cooling, samples (0.5 mL) were centrifuged with 0.5 mL of trichloroacetic acid (15%) at 1,200 ×g for 10 min. An aliquot of 0.5 mL from supernatant was mixed with 0.5 mL TBA (0.67%) and heated at 95 °C for 30 min. After cooling, sample absorbance was measured using a spectrophotometer at 532 nm. The results were expressed as percentage of TBARS formed by AAPH alone (induced control).
# [3] = tested on: murine peritoneal macrophages RAW 264.7; assay: Cytotoxicity assay on RAW 264.7 (LDH release); assay type: cell-based
# Procedure: Murine peritoneal macrophages of the cell line RAW 264.7 were obtained from the American Type Culture Collection (ATCC, Rockville, MD, USA), and cultured at 37 °C with CO2 at 5% in DMEM-F12 supplemented with 10% fetal bovine serum (FBS; Hyclone^TM, Logan, UT, USA) and gentamicin (50 μg/mL). RAW 264.7 cells (5 × 10^5 cells/mL) were cultured and incubated for 24 h with the riparins A, B, C, D, E and F at the final concentration of 25 µg/mL […]. The cytotoxicity assay was performed by LDH assay. The release of LDH (cytoplasmic lactate dehydrogenase enzyme) was determined using 50 μL of culture supernatant with 100 μL of LDH substrate plus and 5 μL ferric alum (5 mg/mL), at 37 °C for 3 min. Then, 100 μL of the NAD solution and phenazine methosulphate were added to the mixture, maintaining the temperature at 37 °C for 5 min (Labrax Commercial Kit, Clontech, Palo Alto, CA, USA). LDH is an oxidoreductase which catalyzes the interconversion of lactate and pyruvate and, for being a stable cytosolic enzyme, after damage to cell membrane it is released in the cellular environment and because of this LDH is an indirect indicator of cytotoxicity. LDH concentration was determined by colorimetry at 492 nm. The specific release of LDH was calculated as percentage of the controls (not treated cells as negative control and cells treated with 1%Triton X-100 as positive control).
# (§2) The obtained data were evaluated by one-way analysis of variance (ANOVA) followed by a Student Newman Keuls post hoc test. The data concerning release percentage of cytoplasmatic enzyme lactate dehydrogenase (LDH) were reported by mean ± standard deviation and evaluated by one-way analysis of variance (ANOVA) followed by a Tukey post hoc test. In all cases differences were considered significant if p < 0.05, the means and respective standard errors were analyzed in the Graph Pad Prism version 5.0 for Windows software (GraphPad Software Incorporated, San Diego, CA, USA).
# [4] = Scavenging activity of nitric oxide (nitrite production induced by SNP, Griess reaction); conditions: for IC50 Nitrite: nitrite formation
# Procedure: as §1
# Nitric oxide was generated from spontaneous decomposition of sodium nitroprusside in 20 mM phosphate buffer (pH 7.4). Once generated, NO interacts with oxygen to produce nitrite ions, which are measured by the Griess reaction. The reaction mixture (1 mL) containing 10 mM sodium nitroprusside (SNP) in phosphate buffer and the riparins at various concentrations of 1, 5, 10, 25 and 100 µg/mL were incubated at 37 °C for 1 h. A 0.5 mL aliquot was taken and homogenized with 0.5 mL Griess reagent. The absorbance of chromophore was measured at 540 nm. Percent inhibition of generated nitric oxide was measured by comparing the absorbance values of negative controls (only 10 mM sodium nitroprusside and vehicle) to assay preparations. Results were expressed as percentage of nitrite formed by SNP alone.
# [5] = tested on: HEP-2 (laryngeal carcinoma); assay: Cytotoxicity against tumor cell lines (MTT); assay type: cell-based; conditions: Homo sapiens, 72 h, 95% confidence interval in brackets, read-out: IC50 values and confidence intervals, HEP-2
# Procedure: (§3) Cells were maintained at 37 °C with 5% CO2 in RPMI 1640 (Himedia^TM, Mumbai, India) or DMEM medium (Gibco^TM, Grand Island, NY, USA) supplemented with 2 mM glutamine, 100 U/mL penicillin, 100 μg/mL streptomycin. The antiproliferative activities of riparins were evaluated in the following human cancer cells lineage: HL-60 (pro-myelocytic leukemia), NCIH-292 (lung carcinoma), and HEP-2 (laryngeal carcinoma) obtained from the Rio de Janeiro Cell Bank (RJ-Brazil). For all experiments, 100 µL of tumor cells were plated in 96-well plates (6 × 10^4 cells/cm^2 for adherent cells or 9 × 10^4 cells/cm^2 for leukemia). Tested compounds (0.1–25 μg/mL) dissolved in 1% DMSO (100 µL) were added to each well and incubated for 72 h. Control groups received the same amount of DMSO. After 69 h of treatment, 25 μL of MTT (5 mg/mL) were added. Three hours later, the MTT formazan product was dissolved in 100 μL of DMSO, and absorbance was measured at 595 nm using a multiplate reader (Thermo Plate®, TP Reader, São Paulo, SP, Brasil).
# as §2
# [6] = tested on: NCIH-292 (lung carcinoma); assay: Cytotoxicity against tumor cell lines (MTT); assay type: cell-based; conditions: Homo sapiens, NCI-H292, 72 h, 95% confidence interval in brackets, read-out: IC50 values and confidence intervals, NCIH-292
# Procedure: as §3, §2
# [7] = tested on: HL-60 (pro-myelocytic leukemia); assay: Cytotoxicity against tumor cell lines (MTT); assay type: cell-based; conditions: Homo sapiens, 72 h, 95% confidence interval in brackets, read-out: IC50 values and confidence intervals, HL-60
# Procedure: as §3, §2
# [8] = tested on: tumor cells lines (leukemia and lung and laryngeal carcinoma); assay: Cytotoxicity on tumor cell lines, summary statements over the lines (MTT); assay type: cell-based; conditions: Homo sapiens; for IC50: leukemia and lung and laryngeal carcinoma, read-out: IC50 values on neoplastic cells (range over cell lines); for inhibition at 25 µg/mL: tumor cells lines, cytotoxicity samples tested at 25 µg/mL, read-out: cell growth inhibition rates
# Procedure: as §1, §3
# [9] = 140 μg/mL (standard antioxidant)
Compound,2-Deoxyribose degradation (%) ([1]; 1 μg/mL),2-Deoxyribose degradation (%) ([1]; 5 μg/mL),2-Deoxyribose degradation (%) ([1]; 10 μg/mL),2-Deoxyribose degradation (%) ([1]; 25 μg/mL),2-Deoxyribose degradation (%) ([1]; 100 μg/mL),IC50 OH radical [1] [µg/mL],TBARS levels (% AAPH) ([2]; 1 μg/mL),TBARS levels (% AAPH) ([2]; 5 μg/mL),TBARS levels (% AAPH) ([2]; 10 μg/mL),TBARS levels (% AAPH) ([2]; 25 μg/mL),TBARS levels (% AAPH) ([2]; 100 μg/mL),IC50 TBARS [2] [µg/mL],"LDH % Release ([3]; 25 µg/mL, RAW 264.7) [%]",Nitrite Production (% induced by SNP) ([4]; 1 μg/mL),Nitrite Production (% induced by SNP) ([4]; 5 μg/mL),Nitrite Production (% induced by SNP) ([4]; 10 μg/mL),Nitrite Production (% induced by SNP) ([4]; 25 μg/mL),Nitrite Production (% induced by SNP) ([4]; 100 μg/mL),IC50 Nitrite [4] [µg/mL],IC50 [6] [µg/mL],further results
"O=C(NCCc1ccccc1)c1ccccc1 [Rip-A, N-Phenethylbenzamide]",97.1 ± 0.78 ^a %,76.9 ± 1.10 ^a %,54.5 ± 0.85 ^a %,49.6 ± 0.89 ^a %,44.8 ± 0.30 ^a %,1.501,40.9 ± 1.77 ^a %,38.1 ± 0.49 ^a %,36.7 ± 0.66 ^a %,35.1 ± 0.88 ^a %,25.8 ± 0.48 ^a %,1.147,28.13,75.1 ± 1.31 ^a %,29.1 ± 0.61 ^a %,29.2 ± 2.05 ^a %,24.3 ± 0.62 ^a %,20.4 ± 1.20 ^a %,0.8404,> 25,IC50 [5]: > 25 µg/mL; IC50 [7]: > 25 µg/mL
"COc1ccc(CCNC(=O)c2ccccc2)cc1OC [Rip-B, N-[2-(3,4-Dimethoxyphenyl)ethyl]benzamide]",98.4 ± 0.39 ^a %,79.8 ± 1.34 ^a %,58.5 ± 0.85 ^a %,47.7 ± 0.44 ^a %,47.2 ± 0.43 ^a %,1.639,44.5 ± 1.31 ^a %,40.4 ± 0.85 ^a %,38.3 ± 1.05 ^a %,36.5 ± 1.21 ^a %,29.7 ± 1.31 ^a %,1.032,17.31,75.8 ± 1.02 ^a %,34.1 ± 1.85 ^a %,29.1 ± 2.00 ^a %,23.1 ± 0.97 ^a %,20.6 ± 0.98 ^a %,0.7948,> 25,melting point: 90 °C; IC50 [5]: > 25 µg/mL; IC50 [7]: > 25 µg/mL
"O=C(NCCc1ccccc1)c1ccccc1O [Rip-C, 2-Hydroxy-N-phenethylbenzamide]",95.5 ± 1.30 ^a %,80.9 ± 1.29 ^a %,58.7 ± 1.37 ^a %,52.1 ± 0.13 ^a %,46.7 ± 0.35 ^a %,0.9516,39.3 ± 0.60 ^a %,38.8 ± 1.07 ^a %,34.3 ± 0.92 ^a %,29.5 ± 1.91 ^a %,25.7 ± 2.62 ^a %,0.8971,87.35,69.3 ± 1.07 ^a %,34.9 ± 0.23 ^a %,22.9 ± 1.31 ^a %,19.8 ± 0.83 ^a %,16.5 ± 1.44 ^a %,0.7240,> 25,"IC50 [8]: 1.9 to 11.4 µg/mL; inhibition at 25 µg/mL [8]: > 70%; LDH % Release ([3]; 25 µg/mL, RAW 264.7, listed as riparin C): greater than 80%; melting point: 95 °C; IC50 [5]: 7.3 µg/mL; IC50 [7]: 3.3 µg/mL"
"O=C(NCCc1ccccc1)c1c(O)cccc1O [Rip-E, 2,6-Dihydroxy-N-phenethylbenzamide]",79.9 ± 0.64 ^a %,62.2 ± 2.14 ^a %,53.4 ± 1.79 ^a %,51.4 ± 1.47 ^a %,49.4 ± 0.85 ^a %,1.054,41.4 ± 0.69 ^a %,38.6 ± 0.63 ^a %,35.5 ± 0.37 ^a %,31.3 ± 0.76 ^a %,28.2 ± 0.39 ^a %,0.7821,96.91,65.9 ± 1.30 ^a %,37.7 ± 0.95 ^a %,25.1 ± 1.37 ^a %,20.1 ± 0.71 ^a %,15.4 ± 1.11 ^a %,0.5224,> 25,"IC50 [8]: 1.9 to 11.4 µg/mL; inhibition at 25 µg/mL [8]: > 70%; LDH % Release ([3]; 25 µg/mL, RAW 264.7, listed as riparin E): greater than 80%; melting point: 155 °C; IC50 [7]: 1.9 µg/mL"
"Cc1c(C)c2c(c(C)c1O)CCC(C)(C(=O)O)O2 (stereo not shown) [Trolox, reference compound]",,,,,,,,,,,,,,,,,,,,,"2-Deoxyribose degradation (%) [1, 9]: 21.4 ± 0.95 ^a %; TBARS levels (% AAPH) [2, 9]: 55.3 ± 6.48 ^a %; Nitrite Production (% induced by SNP) [4, 9]: 40.2 ± 2.80 ^a %"
"Triton X-100 [Triton X-100 1%, reference compound]",,,,,,,,,,,,,,,,,,,,,LDH % Release [3]: 99.96%
